Like-named read-outs stand apart in the source and are kept apart here.
Conditions: for time to therapeutic effect (time when dP/dt max leveled off): n=1
Experimental: Female Sprague Dawley rats (225-300 g) were anaesthetized using isoflurane (1-3% isoflurane in oxygen). Animals were treated with a single dose of sustained release buprenorphine (Bup-SR) at 1 mg/kg subcutaneously to control pain. 2 device of the invention reservoirs (porous or non-porous) were implanted subcutaneously in the rat, the device implantation procedure is shown in FIG. 3A. Briefly, the hair on the back of the rat was removed and surgical sites were prepared with 3 washes of Betadine and 70% ethanol. Devices were sterilized using ethylene oxide prior to implantation. An anterior incision was made at the base of the neck for the and 2 posterior incisions were made 9 cm from the original incision along the back of the rat, 1 cm lateral of the spine. A blunt dissection was made at all incisions and a forceps was used to tunnel subcutaneously from the anterior to the posterior sites. A vascular access button, or self-sealing subcutaneous port (VAB95BS-MRI, VABM2B/22R22, VABR4B/22 Instech Laboratories), was connected to the dorsal end of the catheter of each device of the invention reservoir. The port was placed in position at the base of the neck and the devices tunneled posteriorly into position. The port was secured to the underlying fascia using at least one interrupted suture (5-0 monofilament). Each device of the invention reservoir was secured to the underlying fascia with one suture at either side (7-0 monofilament). The skin was closed with interrupted sutures (5-0 monofilament) and the animal was allowed to recover on a heated pad. 3 mL of warm saline were administered subcutaneously. The following day, one of the two implanted device of the invention reservoirs was actuated at controlled input pressures of 1 PSI (Regime 1) or 2 PSI (Regime 2) at 1 Hz every 12 hours for 14 days (FIG. 3b) and compared to the non-actuated control reservoir for analysis. On day 15, animals were sacrificed by CO2. Following sacrifice, each device and the immediate surrounding tissue were extracted.

SMILES: CNC[C@H](O)c1ccc(O)c(O)c1 [epinephrine]
- time to therapeutic effect (time when dP/dt max leveled off) (actuated device, 35 uL of 1 mg/ml): ~40 s
- time to therapeutic effect (time when dP/dt max leveled off) (control (non-actuated) device, same animal): ~170 s
- cyclical average dp/dt max in the first 40 s after delivery, actuation group compared with control (first 40 s after delivery, P<0.0001): significantly higher

Reference: patent publication US20230094196A1, “AN IMPLANTABLE MEDICAL DEVICE” (NATIONAL UNIVERSITY OF IRELAND, GALWAY, priority 2019, published 2023)
